Laboratory results taken from patent publication US11696937B2, “Glycopeptide compounds having activity of resisting drug-resistant bacteria, and preparation method and application thereof” (priority 2018, dated 2023).
In brackets after ≈: the same amount, converted by molar mass.

Tests used:
[1] = system: ATCC43300 (MRSA); assay: In vitro antibacterial activity (MIC) against MRSA; assay type: cell-based, Methicillin-resistant Staphylococcus aureus; conditions: MRSA strain ATCC43300; method of Pharmacopoeia of the People's Republic of China (2015 edition)
Experimental: (§1) An antibacterial activity of the compounds in Table 1 is determined in vitro, and a minimum inhibitory concentration (MIC) is read. The determination method refers to the method of the Pharmacopoeia of the People's Republic of China (2015 edition). The MRSA detection strain is purchased from ATCC, and the VRE detection strain is from the clinically isolated drug-resistant strain 07-W3-45 from Shanghai Huashan Hospital. Known antibiotic oritavancin (phosphate) is used for a reference drug.

[2] = system: Clinical isolates 07-W3-45 (VRE); assay: In vitro antibacterial activity (MIC) against VRE; assay type: cell-based, Vancomycin-resistant Enterococcus; conditions: clinically isolated drug-resistant strain 07-W3-45 from Shanghai Huashan Hospital
Experimental: as §1

[3] = system: wild AB zebrafish; assay: Zebrafish toxicity test; assay type: in vivo; conditions: intravenous injection, 72 hours of treatment, samples in phosphate form
Experimental: A zebrafish toxicity test of the compounds in Table 1 is also tested. Randomly select wild AB zebrafish in a six-well plate, and inject each test sample at a dose of 50, 100, 150, 200, and 250 ng/tail intravenously. At the same time, a normal control group and a solvent control group (aqueous phosphoric acid) are set; During this experiment, the death of zebrafish is observed and recorded every day and the dead fish are removed. After 72 hours of treatment, the death of zebrafish is counted. Calculate the LD50 of each test product to zebrafish.
All samples are tested for zebrafish toxicity in phosphate form.

Row | Structure (SMILES) | MIC ATCC43300 (MRSA) [1] [µg/mL] | MIC Clinical isolates 07-W3-45 (VRE) [2] [µg/mL] | Zebrafish LD50 [3] [ng/tail]
1 | CNC(CC(C)C)C(=O)NC1C(=O)NC(CC(N)=O)C(=O)NC2C(=O)NC3C(=O)NC(C(=O)NC(C(=O)O)c4cc(O)cc(O)c4-c4cc3ccc4O)C(OC3CC(C)(N)C(O)C(C)O3)c3ccc(c(Cl)c3)Oc3cc2cc(c3OC2OC(CO)C(O)C(O)C2OC2CC(C)(NCc3ccc(OCCc4cccc(Br)c4)cc3)C(O)C(C)O2)Oc2ccc(cc2Cl)C1O (stereo not drawn) [Compound 10] | 0.125 (≈ 0.0664 µM) | 1 (≈ 0.531 µM) | 113
2 | CNC(CC(C)C)C(=O)NC1C(=O)NC(CC(N)=O)C(=O)NC2C(=O)NC3C(=O)NC(C(=O)NC(C(=O)O)c4cc(O)cc(O)c4-c4cc3ccc4O)C(OC3CC(C)(N)C(O)C(C)O3)c3ccc(c(Cl)c3)Oc3cc2cc(c3OC2OC(CO)C(O)C(O)C2OC2CC(C)(NCc3ccc(OCCc4ccc(C(F)(F)F)cc4)cc3)C(O)C(C)O2)Oc2ccc(cc2Cl)C1O (stereo not drawn) [Compound 11] | 0.064 (≈ 0.0342 µM) | 0.5 (≈ 0.267 µM) | 99
3 | CNC(CC(C)C)C(=O)NC1C(=O)NC(CC(N)=O)C(=O)NC2C(=O)NC3C(=O)NC(C(=O)NC(C(=O)O)c4cc(O)cc(O)c4-c4cc3ccc4O)C(OC3CC(C)(N)C(O)C(C)O3)c3ccc(c(Cl)c3)Oc3cc2cc(c3OC2OC(CO)C(O)C(O)C2OC2CC(C)(NCc3ccc(OCCc4ccc(OC)cc4)cc3)C(O)C(C)O2)Oc2ccc(cc2Cl)C1O (stereo not drawn) [Compound 12] | 0.5 (≈ 0.273 µM) | 16 (≈ 8.73 µM) | 188
4 | CNC(CC(C)C)C(=O)NC1C(=O)NC(CC(N)=O)C(=O)NC2C(=O)NC3C(=O)NC(C(=O)NC(C(=O)O)c4cc(O)cc(O)c4-c4cc3ccc4O)C(OC3CC(C)(N)C(O)C(C)O3)c3ccc(c(Cl)c3)Oc3cc2cc(c3OC2OC(CO)C(O)C(O)C2OC2CC(C)(NCc3ccc(OCCCc4ccc(Cl)cc4)cc3)C(O)C(C)O2)Oc2ccc(cc2Cl)C1O (stereo not drawn) [Compound 13] | 0.5 (≈ 0.27 µM) | 2 (≈ 1.08 µM) | 164
5 | CNC(CC(C)C)C(=O)NC1C(=O)NC(CC(N)=O)C(=O)NC2C(=O)NC3C(=O)NC(C(=O)NC(C(=O)O)c4cc(O)cc(O)c4-c4cc3ccc4O)C(OC3CC(C)(N)C(O)C(C)O3)c3ccc(c(Cl)c3)Oc3cc2cc(c3OC2OC(CO)C(O)C(O)C2OC2CC(C)(NCc3ccc(SCc4ccccc4)cc3)C(O)C(C)O2)Oc2ccc(cc2Cl)C1O (stereo not drawn) [Compound 14] | 0.032 (≈ 0.0177 µM) | 8 (≈ 4.43 µM) | 82
6 | CNC(CC(C)C)C(=O)NC1C(=O)NC(CC(N)=O)C(=O)NC2C(=O)NC3C(=O)NC(C(=O)NC(C(=O)O)c4cc(O)cc(O)c4-c4cc3ccc4O)C(OC3CC(C)(N)C(O)C(C)O3)c3ccc(c(Cl)c3)Oc3cc2cc(c3OC2OC(CO)C(O)C(O)C2OC2CC(C)(NCc3ccc(SCc4ccc(Cl)cc4)cc3)C(O)C(C)O2)Oc2ccc(cc2Cl)C1O (stereo not drawn) [Compound 15] | 0.032 (≈ 0.0174 µM) | 1 (≈ 0.544 µM) | 76
7 | CNC(CC(C)C)C(=O)NC1C(=O)NC(CC(N)=O)C(=O)NC2C(=O)NC3C(=O)NC(C(=O)NC(C(=O)O)c4cc(O)cc(O)c4-c4cc3ccc4O)C(OC3CC(C)(N)C(O)C(C)O3)c3ccc(c(Cl)c3)Oc3cc2cc(c3OC2OC(CO)C(O)C(O)C2OC2CC(C)(NCc3ccc(SCCc4ccc(Cl)cc4)cc3)C(O)C(C)O2)Oc2ccc(cc2Cl)C1O (stereo not drawn) [Compound 16] | 0.032 (≈ 0.0173 µM) | 0.5 (≈ 0.27 µM) | 72
8 | CNC(CC(C)C)C(=O)NC1C(=O)NC(CC(N)=O)C(=O)NC2C(=O)NC3C(=O)NC(C(=O)NC(C(=O)O)c4cc(O)cc(O)c4-c4cc3ccc4O)C(OC3CC(C)(N)C(O)C(C)O3)c3ccc(c(Cl)c3)Oc3cc2cc(c3OC2OC(CO)C(O)C(O)C2OC2CC(C)(NCc3ccc(NCc4ccccc4)cc3)C(O)C(C)O2)Oc2ccc(cc2Cl)C1O (stereo not drawn) [Compound 17] | 0.5 (≈ 0.28 µM) | 1 (≈ 0.559 µM) | 139
9 | CNC(CC(C)C)C(=O)NC1C(=O)NC(CC(N)=O)C(=O)NC2C(=O)NC3C(=O)NC(C(=O)NC(C(=O)O)c4cc(O)cc(O)c4-c4cc3ccc4O)C(OC3CC(C)(N)C(O)C(C)O3)c3ccc(c(Cl)c3)Oc3cc2cc(c3OC2OC(CO)C(O)C(O)C2OC2CC(C)(NCc3ccc(NCc4ccc(C)cc4)cc3)C(O)C(C)O2)Oc2ccc(cc2Cl)C1O (stereo not drawn) [Compound 18] | 0.5 (≈ 0.278 µM) | 1 (≈ 0.555 µM) | 128
10 | CNC(CC(C)C)C(=O)NC1C(=O)NC(CC(N)=O)C(=O)NC2C(=O)NC3C(=O)NC(C(=O)NC(C(=O)O)c4cc(O)cc(O)c4-c4cc3ccc4O)C(OC3CC(C)(N)C(O)C(C)O3)c3ccc(c(Cl)c3)Oc3cc2cc(c3OC2OC(CO)C(O)C(O)C2OC2CC(C)(NCc3ccc(NCc4ccc(Cl)cc4)cc3)C(O)C(C)O2)Oc2ccc(cc2Cl)C1O (stereo not drawn) [Compound 19] | 0.25 (≈ 0.137 µM) | 0.2 (≈ 0.11 µM) | 117
